# Assay results: patent US9675662B2, “Compositions for inhibition of RNA polymerase I and methods of production and use thereof” (The Board of Regents of the University of Oklahoma, priority 2011, dated 2017)
# Entries after “also recorded” stand apart in the source; their conditions may differ. Like-named read-outs stand apart in the source and are kept apart here. Where no end group is shown, it is not given here. The star is where a group is joined. Biotin = O=C1N[C@H]2[C@H](CS[C@H]2CCCCC(=O)*)N1
# Key:
# [1] = test system: rDNA transcription in N1S1 cells; assay: [3H]-uridine incorporation into newly synthesized RNA in transduced N1S1 cells; format: cell-based, rat; details: 40 μM, eight hours after transduction
# Procedure: FIG. 7 illustrates that transduction of the 22mer inhibits rDNA transcription in tissue culture cells. Low density cultures of N1S1 cells were transduced with the TAT-22mer (40 μM). Eight hours after transduction, the cells were incubated with tritiated uridine to label newly synthesized RNA. Total RNA was precipitated with TCA and collected on glass fiber filters, and the radioactivity incorporated was measured by liquid scintillation counting.
# WI38 cells = assay: Growth of WI38 cells (MTT assay) and peptide uptake; format: cell-based; details: 48 hours
# Procedure: FIG. 11 illustrates the effects of TAT-22mer on WI38 cells after 48 hours using the MTT assay.
# (§1) In these experiments, and in others described below, cell numbers were determined using the […], and the absorbance at 570 nm is presented instead of cell numbers.
# [2] = test system: P1798 mouse lymphosarcoma cells; assay: Growth and viability (Trypan blue exclusion) of P1798 lymphosarcoma cells; format: cell-based
# Source text: FIG. 16 illustrates the effect of TAT-22mer on P1798 mouse lymphosarcoma cells.
# FIG. 17 contains micrographs of P1798 mouse lymphosarcoma cells treated with TAT-22mer (“STBY peptide”) at indicated doses. The cells were stained with trypan blue to determine viability.
# FIG. 18 illustrates the effects of TAT-22mer (TAT-STBY) and TAT-STBY C-Mu on P1798 mouse lymphosarcoma cells.
# FIG. 19 illustrates the effects of TAT-22mer (TAT-STBY) and TAT-STBY C-Mu on the viability of P1798 mouse lymphosarcoma cells. The same cells studied in the experiment presented in FIG. 18, were also stained with Trypan blue to determine viability. The viable cell counts at 10 and 24 hrs of treatment were too low to be considered reliable (*).
# FIG. 20 illustrates the effects of TAT-22mer (TAT-STBY) and TAT-STBY C-Mu on the viability of P1798 mouse lymphosarcoma cells as analyzed in FIGS. 18 and 19.
# FIG. 21 illustrates the effects of TAT-22mer (TAT-STBY) and TAT-STBY C-Mu on P1798 mouse lymphosarcoma cells. P1798 Cells were treated with TAT-STBY C-Mu for 26 hours and then stained with Trypan blue. […] The treated cells were concentrated 20× for photography.
# FIG. 22 illustrates the kinetics of cell death following treatment with C-Mu peptide. […] Cells were harvested by centrifugation every two hours, and the numbers of viable cells were determined using the Trypan blue exclusion assay.
# (§2) When the sequence of the 22mer was examined, it was noted that it contains two cysteine residues that might form a disulfide bond and inhibit the activity of the peptide. To examine this question, the experiment previously carried out on the N1S1 cells was repeated using peptide that was dissolved in 0.1 mM […].
# In fact, automated cell-cell counting was inaccurate due to the increased amount of dead cells and debris (FIGS. 19-20).
# [3] = test system: U937 human lymphoma cells; assay: Growth of U937 cells; format: cell-based
# Procedure: FIG. 13 illustrates the effects of TAT-22mer on the growth of U937 cells after 24 hours.
# as §1
# N1S1 rat hepatoma cells = assay: Growth of N1S1 hepatoma cells after peptide transduction; format: cell-based
# Procedure: FIG. 14 illustrates the effects of TAT-22mer (labeled “STBY”) on the growth of N1S1 rat hepatoma cells.
# FIG. 15 illustrates the effects of TAT-22mer (labeled “STBY”) on the growth of N1S1 rat hepatoma cells (fresh peptide added after 24 hours).
# This effect was then tested […], i.e. with immortalized cells in tissue culture. There are several possible ways of introducing the desired peptide into cells. In a first experiment, ten amino acids, YGRKKEEQRR (SEQ ID NO:176), were added to the N-terminus of the 22mer peptide, […] (resulting in a sequence of […] (SEQ ID NO:175)); the ten amino acids were added to assist in transduction of the peptide into the cells. The TAT peptide is an NH2-terminal 11-amino acid protein transduction domain (PTD) from the human immunodeficiency virus (HIV) TAT protein that was first identified in 1988 by Green et al. This peptide and peptides like it are capable of transducing proteins across the cell membrane.
# The effects of transducing the 22mer coupled to TAT peptide were then compared to TAT peptide alone. An aggressive chemically-induced hepatoma cell line (N1S1 cells) was used for these experiments.
# as §2
# A431 cells = assay: Growth of A431 cells plated at low density; format: cell-based; details: 72 hr
# Procedure: FIG. 12 illustrates the effects of TAT-22mer on the growth of A431 cells plated at low density after 72 hr.
# as §1
# [4] = test system: rDNA transcription (RNA polymerase I); assay: Cell-free rDNA transcription reaction (N1S1 nuclear extracts, rat rDNA promoter); format: biochemical; details: added in excess to transcription reaction
# Source text: FIG. 6 illustrates squelching by excess Rpa43 or the peptide (22mer) that mediates the interaction between Rpa43 and Rrn3.
# To test this model, recombinant Rpa43 was purified and added to cell free transcription reactions to determine if excess Rpa43 could inhibit transcription. The components added to this reaction included nuclear extracts of N1S1 cells (a rat tumor cell line), and recombinant DNA of the rat rDNA promoter and the purified, recombinant Rpa43 or purified synthetic peptides (FIG. 6). […] A similar series of experiments was then undertaken with synthetic peptides. The two peptides were based on the sequence of the region shown to be required for the interaction between Rrn3 and Rpa43 (FIG. 6, Panel B).
# NIH 3T3 cells = assay: Growth of NIH 3T3 cells after 48 hours; format: cell-based; details: three plating densities, 40 and 60 μM
# Procedure: FIG. 10 illustrates the effects of a TAT-tagged 22mer (TAT-22mer) composition of the presently disclosed inventive concept(s) on NIH 3T3 cells plated at three different densities after 48 hours.
# However, it was possible that the same peptide would inhibit the growth of “normal” cells as well. To examine this possibility, TAT-tagged 22mer was added to the media of NIH 3T3 cells, and growth was measured after 48 hours.
# as §1
# 293T cells = assay: Growth of 293T-based cell lines expressing doxycycline-inducible peptide; details: peptide expressed in cells grown in doxycycline; versus Ψ peptide
# Source text: To confirm and extend these studies, cell lines were constructed that were based on 293T cells (Invitrogen, Carlsbad, Calif.), that expressed doxycycline-inducible 22mer or the random peptide (Ψ). […] N.B., there was an inhibition of growth.
# Rrn3 = molecular target: T1, Rrn3 (Homo sapiens, UniProt Q9NYV6); assay: Binding of purified recombinant Rrn3 to streptavidin beads carrying biotinylated 22mer (pull-down, western blot); details: western blotting for Rrn3 (anti-FLAG)
# T1 construct: made in house
# Procedure: Immunoaffinity purified Rrn3 was incubated with streptavidin beads that had been preincubated with biotin-tagged 22mer or control extracts. After the beads were washed the proteins bound to the beads were analyzed by SDS-PAFE and western blotting for Rrn3 (anti-FLAG antibody).
# In order to address that question, a biotinylated peptide made up of those 22 amino acids (biotin-[…] (SEQ ID NO:1)) was attached to streptavidin beads, and the ability to bind purified, recombinant Rrn3 was determined.
# T1 sequence (Q9NYV6 whole entry, species assumed): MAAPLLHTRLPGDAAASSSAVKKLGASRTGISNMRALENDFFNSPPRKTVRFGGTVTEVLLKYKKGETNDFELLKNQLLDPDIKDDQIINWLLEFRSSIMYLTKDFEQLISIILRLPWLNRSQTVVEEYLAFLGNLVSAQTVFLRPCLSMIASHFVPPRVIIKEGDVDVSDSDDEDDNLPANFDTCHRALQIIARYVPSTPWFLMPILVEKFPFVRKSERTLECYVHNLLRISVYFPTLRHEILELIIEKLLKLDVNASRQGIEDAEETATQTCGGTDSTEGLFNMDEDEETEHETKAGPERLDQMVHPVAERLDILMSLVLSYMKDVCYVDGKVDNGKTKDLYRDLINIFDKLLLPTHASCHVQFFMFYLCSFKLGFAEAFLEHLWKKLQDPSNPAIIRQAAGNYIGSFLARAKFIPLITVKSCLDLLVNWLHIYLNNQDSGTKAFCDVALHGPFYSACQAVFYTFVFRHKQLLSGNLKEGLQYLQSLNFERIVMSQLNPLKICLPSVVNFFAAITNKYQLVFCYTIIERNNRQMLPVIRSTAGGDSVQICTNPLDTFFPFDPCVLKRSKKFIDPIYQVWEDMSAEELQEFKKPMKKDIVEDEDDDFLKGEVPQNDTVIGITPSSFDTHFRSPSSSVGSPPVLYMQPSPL
Substance,inhibition of rDNA transcription ([1]; inferred from uridine incorporation),inhibition of [3H]-uridine incorporation ([1]; low density N1S1 cultures),growth of WI38 cells (WI38 cells),growth of P1798 cells [2],Trypan blue dye exclusion by P1798 cells ([2]; 40 μM),"response of P1798 cells at 40 micromolar ([2]; 40 micromolar, cells grown in a reducing medium)","number of viable P1798 cells ([2]; photomicrographs, Trypan blue)",growth of U937 cells [3],"growth of U937 cells at 80 μM ([3]; 80 μM, 24 hours)",N1S1 cell growth / cell division (N1S1 rat hepatoma cells),N1S1 cell growth / cell division (N1S1 rat hepatoma cells; listed as STBY),"decrease in number of treated N1S1 cells (N1S1 rat hepatoma cells; peptide dissolved in 0.1 mM reducing agent (dithiothreitol), fresh peptide added after 24 hours)",growth of A431 cells (A431 cells),inhibition of cell-free rDNA transcription [4],growth of 3T3 cells (NIH 3T3 cells),"appearance of N1S1 cells (N1S1 rat hepatoma cells; 40 μM, after 48 hr)",rate of N1S1 cell accumulation (N1S1 rat hepatoma cells; 20 and 40 μM),cell growth / rate of cell division (293T cells),binding of Rrn3 to bead-bound peptide (Rrn3),binding of Rrn3 to bead-bound peptide (Rrn3; listed as biotin-tagged 22mer)
"YGRKKEEQRRNKVSSSHIGCLVHGCFNASIPK (1st ten amino acids are TAT peptide from HIV; last 22 amino acids are from Homo sapiens) [TAT-22mer, 22mer with ten TAT amino acids added to the N-terminus]",~100%,70%,minimal effect on cell accumulation,very significant effects on the growth,did not exclude the dye,significant response,significantly reduced the number of viable cells,very significant effects on the growth,significant inhibition of cell growth,cell growth was inhibited,very significant effects on the growth,90%,–,–,–,–,–,–,–,–
"NKVSSSHIGCLVHGCFNASIPK (listed as Homo sapiens) [22mer, amino acids 137 to 158 of mouse Rpa43]",–,–,minimal effect on the growth,–,–,–,–,–,–,inhibits cell division; also recorded: significantly inhibited cell growth in a dose-dependent manner,–,–,inhibited the growth,inhibits transcription; also recorded: transcription was inhibited,no effects on the growth,appeared to be apoptotic,decreased rate of cell accumulation,inhibits cell growth; also recorded: significant decrease in the rate of cell division,–,–
Biotin-NKVSSSHIGCLVHGCFNASIPK (cysteine pairing not given here) [biotinylated 22mer],–,–,–,–,–,–,–,–,–,–,–,–,–,–,–,–,–,–,Rrn3 bound to beads,sufficient to mediate interaction between Rpa43 and Rrn3
